# PMC11421834 (European journal of medicinal chemistry, 2024)
# Biological target: TRKC (Homo sapiens, UniProt Q16288)
# Assay: TRKC enzyme assay, single concentration
# Settings: Percentage inhibition at 0.5 μM (n = 2); ATP 10 μM
# Chain of TRKC (Q16288 32-839): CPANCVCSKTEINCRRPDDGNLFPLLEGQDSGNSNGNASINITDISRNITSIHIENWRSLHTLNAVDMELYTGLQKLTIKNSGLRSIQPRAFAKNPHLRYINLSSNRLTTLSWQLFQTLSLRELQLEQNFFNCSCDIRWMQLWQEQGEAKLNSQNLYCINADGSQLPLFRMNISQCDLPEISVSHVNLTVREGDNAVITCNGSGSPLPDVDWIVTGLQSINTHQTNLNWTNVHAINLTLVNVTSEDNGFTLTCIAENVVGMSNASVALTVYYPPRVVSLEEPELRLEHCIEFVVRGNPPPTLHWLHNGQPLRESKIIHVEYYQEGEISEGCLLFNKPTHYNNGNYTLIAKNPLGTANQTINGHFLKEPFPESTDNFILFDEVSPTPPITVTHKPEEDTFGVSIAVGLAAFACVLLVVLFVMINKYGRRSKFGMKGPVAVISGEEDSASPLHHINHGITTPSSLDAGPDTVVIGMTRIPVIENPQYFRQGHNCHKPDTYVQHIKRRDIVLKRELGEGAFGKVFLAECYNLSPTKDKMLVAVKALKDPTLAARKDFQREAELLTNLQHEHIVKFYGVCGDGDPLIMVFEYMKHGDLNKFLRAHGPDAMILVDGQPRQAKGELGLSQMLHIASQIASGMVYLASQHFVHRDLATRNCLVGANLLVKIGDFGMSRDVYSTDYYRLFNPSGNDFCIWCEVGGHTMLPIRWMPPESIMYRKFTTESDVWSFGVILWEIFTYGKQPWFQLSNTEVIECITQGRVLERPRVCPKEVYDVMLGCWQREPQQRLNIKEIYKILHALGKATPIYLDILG
row,Molecule,TRKC (% Inh.)
1,"3-ethoxy-N-[(3Z)-3-[(1H-imidazole-5-yl)methylidene]-2-oxo-2,3-dihydro-1H-indol-5-yl]thiophene-2-carboxamide [Compound 120]",92%
2,"(3Z)-3-(1H-pyrazol-5-ylmethylidene)-2,3-dihydro-1H-indol-2-one [Compound 8]",92%

# Tested on: over 400 kinases
# Assay: KinomeSCAN kinome profiling at 1 μM
# Format: binding
# Settings: KinomeSCAN at 1 μM across over 400 kinases
row,Molecule,>90: Number of kinases inhibited above 90%
1,"COc1ccc2c(c1)/C(=C/c1cnc[nH]1)C(=O)N2 [Compound 1, (3Z)-3-[(1H-imidazole-5-yl)methylidene]-5-methoxy-2,3-dihydro-1H-indol-2-one]",15
2,"CC(=O)c1ccc2c(c1)/C(=C/c1ccc[nH]1)C(=O)N2 [Compound 27, (3Z)-5-acetyl-3-(1H-pyrrol-2-ylmethylidene)-2,3-dihydro-1H-indol-2-one]",62
3,"O=C1Nc2ccc(C(=O)c3ccccc3)cc2/C1=C/c1cnc[nH]1 [Compound 44, (3Z)-5-benzoyl-3-(1H-imidazole-5-ylmethylidene)-2,3-dihydro-1H-indol-2-one]",15
4,"O=C1Nc2ccc(NC(=O)c3ccccc3)cc2/C1=C/c1ccc[nH]1 [Compound 72, N-[(3Z)-2-oxo-3-(1H-pyrrol-2-ylmethylidene)-2,3-dihydro-1H-indol-5-yl]benzamide]",10
5,"O=C1Nc2ccc(NC(=O)c3ccccc3)cc2/C1=C/c1cnc[nH]1 [Compound 73, N-[(3Z)-3-(1H-imidazole-5-ylmethylidene)-2-oxo-2,3-dihydro-1H-indol-5-yl]benzamide]",9
6,"O=C1Nc2ccc(NC(=O)c3ccccc3)cc2/C1=C/c1ncc[nH]1 [Compound 74, N-[(3Z)-3-(1H-imidazole-2-ylmethylidene)-2-oxo-2,3-dihydro-1H-indol-5-yl]benzamide]",11
7,"COc1ccccc1C(=O)Nc1ccc2c(c1)/C(=C/c1ncc[nH]1)C(=O)N2 [Compound 97, N-[(3Z)-3-(1H-imidazole-2-ylmethylidene)-2-oxo-2,3-dihydro-1H-indol-5-yl]-2-methoxybenzamide]",7
8,O=C1Cc2cc(NC(=O)c3cc4sccc4s3)ccc2N1 [Compound 111],15
9,"Cc1nc[nH]c1/C=C1\C(=O)Nc2ccc(NC(=O)c3ccccc3)cc21 [Compound 128, N-[(3Z)-3-[(4-methyl-1H-imidazole-5-yl)methylidene]-2-oxo-2,3-dihydro-1H-indol-5-yl]benzamide]",11

# Same assay, conditions: KinomeSCAN at 1 μM, selectivity score
row,Molecule,S(10)
1,"CC(=O)c1ccc2c(c1)/C(=C/c1ccc[nH]1)C(=O)N2 [Compound 27, (3Z)-5-acetyl-3-(1H-pyrrol-2-ylmethylidene)-2,3-dihydro-1H-indol-2-one]",0.154

# Biological target: T1, FLT3 (Homo sapiens, UniProt P36888)
# T1 sequence (P36888 27-993): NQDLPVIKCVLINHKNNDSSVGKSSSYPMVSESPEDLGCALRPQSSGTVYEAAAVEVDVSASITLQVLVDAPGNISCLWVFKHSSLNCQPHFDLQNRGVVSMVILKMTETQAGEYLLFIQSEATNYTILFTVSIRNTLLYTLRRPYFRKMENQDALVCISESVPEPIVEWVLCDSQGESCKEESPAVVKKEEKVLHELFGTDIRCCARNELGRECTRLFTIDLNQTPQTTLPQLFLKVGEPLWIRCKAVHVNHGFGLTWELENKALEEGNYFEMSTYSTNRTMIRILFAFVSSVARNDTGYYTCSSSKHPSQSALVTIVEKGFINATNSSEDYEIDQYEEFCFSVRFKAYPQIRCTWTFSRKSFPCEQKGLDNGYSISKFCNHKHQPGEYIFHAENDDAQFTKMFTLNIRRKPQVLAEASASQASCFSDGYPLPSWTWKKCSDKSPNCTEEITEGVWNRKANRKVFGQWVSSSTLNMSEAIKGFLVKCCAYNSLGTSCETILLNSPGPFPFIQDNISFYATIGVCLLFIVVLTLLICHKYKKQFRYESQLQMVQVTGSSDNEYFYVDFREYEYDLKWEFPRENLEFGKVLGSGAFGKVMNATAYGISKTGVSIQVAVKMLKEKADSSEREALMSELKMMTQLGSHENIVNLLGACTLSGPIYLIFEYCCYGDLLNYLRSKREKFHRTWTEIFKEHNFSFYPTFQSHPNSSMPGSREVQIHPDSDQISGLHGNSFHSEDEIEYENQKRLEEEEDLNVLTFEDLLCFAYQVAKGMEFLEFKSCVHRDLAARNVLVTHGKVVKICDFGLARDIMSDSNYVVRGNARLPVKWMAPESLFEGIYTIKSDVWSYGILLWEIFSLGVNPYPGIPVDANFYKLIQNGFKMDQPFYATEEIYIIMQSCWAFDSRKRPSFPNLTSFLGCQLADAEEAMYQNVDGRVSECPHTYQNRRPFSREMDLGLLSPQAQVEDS
# Assay: FLT3 enzyme assay, single concentration
# Settings: read-out: FLT3 (% Inh.)
row,Molecule,inhibition at 0.5 µM
1,"COc1ccsc1C(=O)Nc1ccc2c(c1)/C(=C/c1cnc[nH]1)C(=O)N2 [Compound 119, (Z)-N-(3-((1H-imidazole-5-yl)methylene)-2-oxoindolin-5-yl)-3-methoxythiophene-2-carboxamide]",80%
